Columns and labels:
[1] = test system: HeLa human cervical tumour cells; experiment: Proliferation assay (crystal violet), HeLa; format: cell-based; details: read-out: Inhibition of HeLa cell proliferation
[2] = target: T1, CDK2/CycE (Homo sapiens, UniProt P24941); experiment: CDK2/CycE kinase assay (TR-FRET); format: biochemical; details: Method 2, 10 μM ATP
T1 construct: GST; purchased ProQinase GmbH (Freiburg, Germany); host or cells: insect cells (Sf9)
Description: 2. CDK2/CycE Kinase Assay:
CDK2/CycE-inhibitory activity of compounds of the present invention was quantified employing the CDK2/CycE TR-FRET assay as described in the following paragraphs:
Recombinant fusion proteins of GST and human CDK2 and of GST and human CycE, expressed in insect cells (Sf9) and purified by Glutathion-Sepharose affinity chromatography, were purchased from ProQinase GmbH (Freiburg, Germany). As substrate for the kinase reaction biotinylated peptide biotin-Ttds-[…] (C-terminus in amid form) was used which can be purchased e.g. form the company JERINI Peptide Technologies (Berlin, Germany).
For the assay 50 nl of a 100fold concentrated solution of the test compound in DMSO was pipetted into a black low volume 384well microtiter plate (Greiner Bio-One, Frickenhausen, Germany), 2 μl of a solution of CDK2/CycE in aqueous assay buffer [50 mM Tris/HCl pH 8.0, 10 mM MgCl2, 1.0 mM dithiothreitol, 0.1 mM sodium ortho-vanadate, 0.01% (v/v) Nonidet-P40 (Sigma)] were added and the mixture was incubated for […] at 22° C. to allow pre-binding of the test compounds to the enzyme before the start of the kinase reaction. Then the kinase reaction was started by the addition of 3 μl of a solution of adenosine-tri-phosphate (ATP, 16.7 μM=>final conc. in the 5 it assay volume is 10 μM) and substrate (1.25 μM=>final conc. in the 5 it assay volume is 0.75 μM) in assay buffer and the resulting mixture was incubated for a reaction time of […] at 22° C. The concentration of CDK2/CycE was adjusted depending of the activity of the enzyme lot and was chosen appropriate to have the assay in the linear range, typical concentrations were in the range of 130 ng/ml. The reaction was stopped by the addition of 5 it of a solution of TR-FRET detection reagents (0.2 μM streptavidine-XL665 [Cisbio Bioassays, Codolet, France] and 1 nM anti-RB(pSer807/pSer811)-antibody from BD Pharmingen [#558389] and 1.2 nM LANCE EU-W1024 labeled anti-mouse IgG antibody [Perkin-Elmer, product no. AD0077]) in an aqueous EDTA-solution (100 mM EDTA, 0.2% (w/v) bovine serum albumin in 100 mM HEPES/NaOH pH 7.0).
(§1) The resulting mixture was incubated 1 h at 22° C. to allow the formation of complex between the phosphorylated biotinylated peptide and the detection reagents. Subsequently the amount of phosphorylated substrate was evaluated by measurement of the resonance energy transfer from the Eu-chelate to the streptavidine-XL. Therefore, the fluorescence emissions at 620 nm and 665 nm after excitation at 350 nm was measured in a TR-FRET reader, e.g. a Rubystar (BMG Labtechnologies, Offenburg, Germany) or a Viewlux (Perkin-Elmer). The ratio of the emissions at 665 nm and at 622 nm was taken as the measure for the amount of phosphorylated substrate.

[3] = target: T2, CDK9/CycT1 (Homo sapiens, UniProt P50750); experiment: CDK9/CycT1 kinase assay (TR-FRET); format: biochemical; details: Method 1, 10 μM ATP
T2 construct: Recombinant full-length His-tagged human CDK9 and CycT1; His; purchased Invitrogen PV4131; host or cells: insect cells
Description: 1. CDK9/CycT1 Kinase Assay:
CDK9/CycT1-inhibitory activity of compounds of the present invention was quantified employing the CDK9/CycT1 TR-FRET assay as described in the following paragraphs:
Recombinant full-length His-tagged human CDK9 and CycT1, expressed in insect cells and purified by Ni-NTA affinity chromatography, were purchased from Invitrogen (Cat. No PV4131). As substrate for the kinase reaction biotinylated peptide biotin-Ttds-[…] (C-terminus in amid form) was used which can be purchased e.g. form the company JERINI Peptide Technologies (Berlin, Germany). For the assay 50 nl of a 100fold concentrated solution of the test compound in DMSO was pipetted into a black low volume 384well microtiter plate (Greiner Bio-One, Frickenhausen, Germany), 2 μl of a solution of CDK9/CycT1 in aqueous assay buffer [50 mM Tris/HCl pH 8.0, 10 mM MgCl2, 1.0 mM dithiothreitol, 0.1 mM sodium ortho-vanadate, 0.01% (v/v) Nonidet-P40 (Sigma)] were added and the mixture was incubated for 15 min at 22° C. to allow pre-binding of the test compounds to the enzyme before the start of the kinase reaction. Then the kinase reaction was started by the addition of 3 μl of a solution of adenosine-tri-phosphate (ATP, 16.7 μM=>final conc. in the 5 μl assay volume is 10 μM) and substrate (1.67 μM=>final conc. in the 5 μl assay volume is 1 μM) in assay buffer and the resulting mixture was incubated for a reaction time of 25 min at 22° C. The concentration of CDK9/CycT1 was adjusted depending of the activity of the enzyme lot and was chosen appropriate to have the assay in the linear range, typical concentrations were in the range of 1 μg/ml. The reaction was stopped by the addition of 5 μl of a solution of TR-FRET detection reagents (0.2 μM streptavidine-XL665 [Cisbio Bioassays, Codolet, France] and 1 nM anti-RB(pSer807/pSer811)-antibody from BD Pharmingen [#558389] and 1.2 nM LANCE EU-W1024 labeled anti-mouse IgG antibody [Perkin-Elmer, product no. AD0077]) in an aqueous EDTA-solution (100 mM EDTA, 0.2% (w/v) bovine serum albumin in 100 mM HEPES/NaOH pH 7.0).
as §1, with “HTRF” for “TR-FRET”

T2 sequence (P50750 whole entry): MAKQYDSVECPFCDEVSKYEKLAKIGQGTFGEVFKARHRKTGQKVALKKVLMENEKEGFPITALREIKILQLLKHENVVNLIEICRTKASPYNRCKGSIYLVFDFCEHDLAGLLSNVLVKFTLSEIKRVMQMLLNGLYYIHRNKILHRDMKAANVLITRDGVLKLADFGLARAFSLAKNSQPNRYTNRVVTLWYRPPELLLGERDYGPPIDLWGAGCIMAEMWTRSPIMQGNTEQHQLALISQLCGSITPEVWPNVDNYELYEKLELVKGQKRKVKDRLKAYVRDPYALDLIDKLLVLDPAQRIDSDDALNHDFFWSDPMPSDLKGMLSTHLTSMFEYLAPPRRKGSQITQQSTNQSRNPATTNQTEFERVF
T2 sequence (O60563 whole entry partner): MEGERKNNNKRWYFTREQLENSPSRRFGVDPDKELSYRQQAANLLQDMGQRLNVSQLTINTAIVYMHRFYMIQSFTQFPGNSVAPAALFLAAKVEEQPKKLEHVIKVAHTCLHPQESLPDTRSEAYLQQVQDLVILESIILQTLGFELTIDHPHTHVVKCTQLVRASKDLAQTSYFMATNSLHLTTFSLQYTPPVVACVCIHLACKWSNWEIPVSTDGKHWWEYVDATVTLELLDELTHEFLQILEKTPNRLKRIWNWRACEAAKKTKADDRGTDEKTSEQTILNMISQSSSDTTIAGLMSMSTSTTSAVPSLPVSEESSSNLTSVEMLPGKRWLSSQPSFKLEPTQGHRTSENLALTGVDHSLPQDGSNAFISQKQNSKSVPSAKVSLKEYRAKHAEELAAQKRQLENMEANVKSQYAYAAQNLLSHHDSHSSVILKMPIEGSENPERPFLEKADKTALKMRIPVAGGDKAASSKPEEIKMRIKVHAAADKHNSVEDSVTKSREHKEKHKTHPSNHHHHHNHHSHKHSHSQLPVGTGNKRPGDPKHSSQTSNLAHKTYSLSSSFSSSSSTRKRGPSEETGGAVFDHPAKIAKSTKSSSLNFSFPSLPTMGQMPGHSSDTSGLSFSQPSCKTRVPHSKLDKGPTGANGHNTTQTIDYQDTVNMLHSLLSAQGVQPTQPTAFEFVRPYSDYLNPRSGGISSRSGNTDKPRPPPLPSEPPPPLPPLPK

Structure (SMILES) | IC50 [1] | IC50 [2] | IC50 [3]
CC(C)S(=O)(=O)Cc1cccc(Nc2ncnc(-c3ccccc3OCc3cccc(Cl)c3)n2)c1 [Example 34, 4-{2-[(3-Chlorobenzyl)oxy]phenyl}-N-{3-[(propan-2-ylsulfonyl)methyl]phenyl}-1,3,5-triazin-2-amine] | 1200 nM | 800 nM | 10 nM
COc1cc(F)ccc1-c1ncnc(Nc2cccc(CS(=O)(=O)C3CCCC3)c2)n1 [Example 36, N-{3-[(Cyclopentylsulfonyl)methyl]phenyl}-4-(4-fluoro-2-methoxyphenyl)-1,3,5-triazin-2-amine] | 1000 nM | 880 nM | 17 nM
CC(C)S(=O)(=O)Cc1cccc(Nc2ncnc(-c3ccccc3OCc3ccc(F)cc3)n2)c1 [Example 37, 4-{2-[(4-Fluorobenzyl)oxy]phenyl}-N-{3-[(prop-2-ylsulfonyl)methyl]phenyl}-1,3,5-triazin-2-amine] | 1100 nM | 2500 nM | 9 nM
CC(C)S(=O)(=O)Cc1cccc(Nc2ncnc(-c3cc(F)ccc3OCc3cccc(F)c3)n2)c1 [Example 38, 4-{5-Fluoro-2-[(3-fluorobenzyl)oxy]phenyl}-N-{3-[(prop-2-ylsulfonyl)methyl]phenyl}-1,3,5-triazin-2-amine] | 840 nM | 320 nM | 6 nM
COc1cc(F)ccc1-c1ncnc(Nc2cc(Cl)cc(CS(C)(=O)=O)c2)n1 [Example 39, N-{5-Chloro-3-[(methylsulfonyl)methyl]phenyl}-4-(4-fluoro-2-methoxyphenyl)-1,3,5-triazin-2-amine] | 280 nM | 190 nM | 9 nM
CC(C)CCOc1cc(F)ccc1-c1ncnc(Nc2cccc(CS(C)(=O)=O)c2)n1 [Example 52, 4-[4-Fluoro-2-(3-methylbutoxy)phenyl]-N-{3-[(methylsulfonyl)methyl]phenyl}-1,3,5-triazin-2-amine] | 1200 nM | 4000 nM | 16 nM
CS(=O)(=O)Cc1cccc(Nc2ncnc(-c3ccc(F)cc3OCC3CCC3)n2)c1 [Example 56, 4-[2-(Cyclobutylmethoxy)-4-fluorophenyl]-N-{3-[(methylsulfonyl)methyl]phenyl}-1,3,5-triazin-2-amine] | 1100 nM | 1400 nM | 27 nM
CS(=O)(=O)Cc1cccc(Nc2ncnc(-c3ccc(F)cc3OCC3CCCCC3)n2)c1 [Example 57, 4-[2-(Cyclohexylmethoxy)-4-fluorophenyl]-N-{3-[(methylsulfonyl)methyl]phenyl}-1,3,5-triazin-2-amine] | 1100 nM | 2400 nM | 7 nM

Results, then the compound that gave them:

IC50 [1] | IC50 [2] | IC50 [3] | Structure (SMILES)
900 nM | 1000 nM | 29 nM | CS(=O)(=O)Cc1cccc(Nc2ncnc(-c3ccc(F)cc3OC3CC3)n2)c1 [Example 41, 4-[2-(Cyclopropyloxy)-4-fluorophenyl]-N-{3-[(methylsulfonyl)methyl]phenyl}-1,3,5-triazin-2-amine]
1100 nM | 860 nM | 12 nM | CCCOc1cc(F)ccc1-c1ncnc(Nc2cccc(CS(C)(=O)=O)c2)n1 [Example 43, 4-(4-Fluoro-2-propoxyphenyl)-N-{3-[(methylsulfonyl)-methyl]phenyl}-1,3,5-triazin-2-amine]
1000 nM | 990 nM | 4 nM | CCCCCOc1cc(F)ccc1-c1ncnc(Nc2cccc(CS(C)(=O)=O)c2)n1 [Example 45, 4-[4-Fluoro-2-(pentyloxy)phenyl]-N-{3-[(methylsulfonyl)-methyl]phenyl}-1,3,5-triazin-2-amine]
2800 nM | 2700 nM | 15 nM | CCCCCCOc1cc(F)ccc1-c1ncnc(Nc2cccc(CS(C)(=O)=O)c2)n1 [Example 46, 4-[4-Fluoro-2-(hexyloxy)phenyl]-N-{3-[(methylsulfonyl)methyl]phenyl}-1,3,5-triazin-2-amine]
1000 nM | 1200 nM | 5 nM | CC(C)CCCOc1cc(F)ccc1-c1ncnc(Nc2cccc(CS(C)(=O)=O)c2)n1 [Example 47, 4-{4-Fluoro-2-[(4-methylpentyl)oxy]phenyl}-N-{3-[(methylsulfonyl)-methyl]phenyl}-1,3,5-triazin-2-amine]
1000 nM | 1300 nM | 29 nM | CS(=O)(=O)Cc1cccc(Nc2ncnc(-c3ccc(F)cc3OCCC3CC3)n2)c1 [Example 48, 4-[2-(2-Cyclopropylethoxy)-4-fluorophenyl]-N-{3-[(methylsulfonyl)methyl]phenyl}-1,3,5-triazin-2-amine]
1200 nM | 640 nM | 11 nM | CC1(COc2cc(F)ccc2-c2ncnc(Nc3cccc(CS(C)(=O)=O)c3)n2)CC1 [Example 49, 4-{4-Fluoro-2-[(1-methylcyclopropyl)methoxy]phenyl}-N-{3-[(methylsulfonyl)-methyl]phenyl}-1,3,5-triazin-2-amine]
2900 nM | 490 nM | 38 nM | COCCOc1cc(F)ccc1-c1ncnc(Nc2cccc(CS(C)(=O)=O)c2)n1 [Example 50, 4-[4-Fluoro-2-(2-methoxyethoxy)phenyl]-N-{3-[(methylsulfonyl)methyl]-phenyl}-1,3,5-triazin-2-amine]
1300 nM | 950 nM | 16 nM | CS(=O)(=O)Cc1cccc(Nc2ncnc(-c3ccc(F)cc3OCCC3CCCC3)n2)c1 [Example 53, 4-[2-(2-Cyclopentylethoxy)-4-fluorophenyl]-N-{3-[(methylsulfonyl)methyl]phenyl}-1,3,5-triazin-2-amine]
1300 nM | 1500 nM | 29 nM | CS(=O)(=O)Cc1cccc(Nc2ncnc(-c3ccc(F)cc3OCCCF)n2)c1 [Example 54, 4-[4-Fluoro-2-(3-fluoropropoxy)phenyl]-N-{3-[(methylsulfonyl)methyl]phenyl}-1,3,5-triazin-2-amine]
